Measured values reported in ChEMBL document CHEMBL1131748, “Nitroquinolones with broad-spectrum antimycobacterial activity in vitro” (1999).
Converted amounts (≈) assume the structure as drawn.

Key:
Type in all cases: functional
MT4 = experiment: Concentration required to reduce the viability of mock-infected MT-4 cells by 50%; details: Homo sapiens
Mycobacterium avium [1] = experiment: Minimum inhibitory concentration required in vitro to reduce the number of viable of Mycobacterium avium complex (MAC) ATCC 49601 by 50%
[2] = system: Mycolicibacterium fortuitum; experiment: Minimum inhibitory concentration required in vitro to reduce the number of viable of Mycobacterium fortuitum (clinical isolate) by 50%
[3] = system: Mycolicibacterium fortuitum; experiment: Minimum inhibitory concentration required in vitro to reduce the number of viable of Mycobacterium fortuitum (clinical isolate) by 90%
[4] = system: Mycolicibacterium smegmatis; experiment: Minimum inhibitory concentration required in vitro to reduce the number of viable of Mycobacterium smegmatis ATCC 19420 by 50%
[5] = system: Mycobacterium tuberculosis; experiment: Minimum inhibitory concentration required in vitro to reduce the number of viable of Mycobacterium tuberculosis ATCC 27294 by 50%
[6] = system: Mycobacterium tuberculosis; experiment: Minimum inhibitory concentration required in vitro to reduce the number of viable of Mycobacterium tuberculosis clinical isolate 1104 by 50%
[7] = system: Mycobacterium tuberculosis; experiment: Minimum inhibitory concentration required in vitro to reduce the number of viable of Mycobacterium tuberculosis ATCC 27294 by 90%
[8] = system: Mycobacterium tuberculosis; experiment: Minimum inhibitory concentration required in vitro to reduce the number of viable of Mycobacterium tuberculosis clinical isolate 1104 by 90%
[9] = system: Mycolicibacterium smegmatis; experiment: Minimum inhibitory concentration required in vitro to reduce the number of viable of Mycobacterium smegmatis ATCC 19420 by 90%
Salmonella [10] = experiment: Minimum bactericidal concentration required in vitro against Salmonella
Salmonella [11] = experiment: Minimum inhibitory concentration required in vitro against Salmonella
Shigella [12] = experiment: Minimum bactericidal concentration required in vitro against Shigella
Shigella [13] = experiment: Minimum inhibitory concentration required in vitro against Shigella
Streptococcus [14] = experiment: Minimum bactericidal concentration required in vitro against Streptococcus D
Streptococcus [15] = experiment: Minimum inhibitory concentration required in vitro against Streptococcus D
Staphylococcus aureus [16] = experiment: Minimum inhibitory concentration required in vitro against Staphylococcus aureus
Staphylococcus aureus [17] = experiment: Minimum bactericidal concentration required in vitro against Staphylococcus aureus
Mycobacterium avium [18] = experiment: Minimum inhibitory concentration required in vitro to reduce the number of viable of Mycobacterium avium complex (MAC) ATCC 49601 by 90%

Structure (SMILES) | CC50 (MT4) | MIC50 (Mycobacterium avium [1]) | MIC50 [2] | MIC90 [3] | MIC50 [4] | MIC50 [5] | MIC50 [6] | MIC90 [7] | MIC90 [8] | MIC90 [9] | MBC (Salmonella [10]) | MIC (Salmonella [11]) | MBC (Shigella [12]) | MIC (Shigella [13]) | MBC (Streptococcus [14]) | MIC (Streptococcus [15]) | MIC (Staphylococcus aureus [16]) | MBC (Staphylococcus aureus [17]) | MIC90 (Mycobacterium avium [18])
O=C(O)c1cn(C2CC2)c2cc(NC3CC3)c([N+](=O)[O-])cc2c1=O | 40 µM | > 200 µM | 3.6 µM (≈ 1.19 µg/mL) | 100 µM (≈ 32.9 µg/mL) | 3.2 µM (≈ 1.05 µg/mL) | ≥ 200 µM | 72 µM (≈ 23.7 µg/mL) | > 200 µM | > 200 µM | 50 µM (≈ 16.5 µg/mL) | 1.5 µM (≈ 0.494 µg/mL) | 1.5 µM (≈ 0.494 µg/mL) | 1.5 µM (≈ 0.494 µg/mL) | 1.5 µM (≈ 0.494 µg/mL) | 0.8 µM (≈ 0.263 µg/mL) | 0.8 µM (≈ 0.263 µg/mL) | 0.8 µM (≈ 0.263 µg/mL) | 1.5 µM (≈ 0.494 µg/mL) | –
CC(C)(C)Nc1cc2c(cc1[N+](=O)[O-])c(=O)c(C(=O)O)cn2C(C)(C)C | 140 µM | 1.2 µM (≈ 0.434 µg/mL) | – | – | 0.5 µM (≈ 0.181 µg/mL) | 1.4 µM (≈ 0.506 µg/mL) | 1.5 µM (≈ 0.542 µg/mL) | 6 µM (≈ 2.17 µg/mL) | 6 µM (≈ 2.17 µg/mL) | 1.5 µM (≈ 0.542 µg/mL) | 6 µM (≈ 2.17 µg/mL) | 3 µM (≈ 1.08 µg/mL) | 6 µM (≈ 2.17 µg/mL) | 6 µM (≈ 2.17 µg/mL) | 0.05 µM (≈ 0.0181 µg/mL) | 0.05 µM (≈ 0.0181 µg/mL) | 0.05 µM (≈ 0.0181 µg/mL) | 0.05 µM (≈ 0.0181 µg/mL) | 12 µM (≈ 4.34 µg/mL)
CC(C)(C)Nc1cc2c(cc1[N+](=O)[O-])c(=O)c(C(=O)O)cn2C1CC1 | 192 µM | 54 µM (≈ 18.6 µg/mL) | > 125 µM | – | 2 µM (≈ 0.691 µg/mL) | 35 µM (≈ 12.1 µg/mL) | 16 µM (≈ 5.53 µg/mL) | > 200 µM | > 200 µM | 5 µM (≈ 1.73 µg/mL) | 25 µM (≈ 8.63 µg/mL) | 25 µM (≈ 8.63 µg/mL) | 25 µM (≈ 8.63 µg/mL) | 25 µM (≈ 8.63 µg/mL) | 2.5 µM (≈ 0.863 µg/mL) | 0.6 µM (≈ 0.207 µg/mL) | 0.6 µM (≈ 0.207 µg/mL) | 1.2 µM (≈ 0.414 µg/mL) | > 200 µM
CC(C)(C)n1cc(C(=O)O)c(=O)c2cc([N+](=O)[O-])c(NC3CC3)cc21 | ≥ 200 µM | 47 µM (≈ 16.2 µg/mL) | > 125 µM | – | 2 µM (≈ 0.691 µg/mL) | 31 µM (≈ 10.7 µg/mL) | 47 µM (≈ 16.2 µg/mL) | > 200 µM | > 200 µM | 7 µM (≈ 2.42 µg/mL) | 25 µM (≈ 8.63 µg/mL) | 25 µM (≈ 8.63 µg/mL) | 25 µM (≈ 8.63 µg/mL) | 25 µM (≈ 8.63 µg/mL) | 10 µM (≈ 3.45 µg/mL) | 5 µM (≈ 1.73 µg/mL) | 2.5 µM (≈ 0.863 µg/mL) | 10 µM (≈ 3.45 µg/mL) | > 200 µM
CC(C)(C)Nc1cc2c(cc1F)c(=O)c(C(=O)O)cn2C(C)(C)C | > 200 µM | > 200 µM | 36 µM (≈ 12 µg/mL) | 129 µM (≈ 43.1 µg/mL) | 34.5 µM (≈ 11.5 µg/mL) | 126 µM (≈ 42.1 µg/mL) | > 200 µM | ≥ 200 µM | – | > 200 µM | 12 µM (≈ 4.01 µg/mL) | 12 µM (≈ 4.01 µg/mL) | 25 µM (≈ 8.36 µg/mL) | 12 µM (≈ 4.01 µg/mL) | 12 µM (≈ 4.01 µg/mL) | 12 µM (≈ 4.01 µg/mL) | 12 µM (≈ 4.01 µg/mL) | 12 µM (≈ 4.01 µg/mL) | –
Nc1cc2c(=O)c(C(=O)O)cn(C3CC3)c2cc1NC1CC1 | 200 µM | 129 µM (≈ 38.6 µg/mL) | 200 µM (≈ 59.9 µg/mL) | – | 156 µM (≈ 46.7 µg/mL) | > 200 µM | > 200 µM | – | – | > 200 µM | – | > 200 µM | – | > 200 µM | 50 µM (≈ 15 µg/mL) | 50 µM (≈ 15 µg/mL) | 25 µM (≈ 7.48 µg/mL) | 25 µM (≈ 7.48 µg/mL) | > 200 µM
CC(C)(C)Nc1cc2c(cc1N)c(=O)c(C(=O)O)cn2C(C)(C)C | > 200 µM | 140 µM (≈ 46.4 µg/mL) | > 125 µM | – | > 125 µM | 168 µM (≈ 55.7 µg/mL) | > 200 µM | > 200 µM | > 200 µM | – | – | > 125 µM | – | > 125 µM | – | > 125 µM | > 125 µM | – | > 200 µM
O=C(O)c1cn(C2CC2)c2cc(NC3CC3)c(F)cc2c1=O | > 200 µM | > 200 µM | > 125 µM | > 200 µM | 150 µM (≈ 45.3 µg/mL) | > 200 µM | > 200 µM | – | – | > 200 µM | 12 µM (≈ 3.63 µg/mL) | 12 µM (≈ 3.63 µg/mL) | 25 µM (≈ 7.56 µg/mL) | 12 µM (≈ 3.63 µg/mL) | 12 µM (≈ 3.63 µg/mL) | 12 µM (≈ 3.63 µg/mL) | 12 µM (≈ 3.63 µg/mL) | 12 µM (≈ 3.63 µg/mL) | > 200 µM
O=C(O)c1cn(C2CC2)c2cc(N3CCNCC3)c(F)cc2c1=O [CIPROFLOXACIN] | 60 µM | 2 µM (≈ 0.663 µg/mL) | – | – | – | – | – | 3 µM (≈ 0.994 µg/mL) | – | – | 0.01 µM (≈ 0.00331 µg/mL) | 0.01 µM (≈ 0.00331 µg/mL) | 0.01 µM (≈ 0.00331 µg/mL) | 0.01 µM (≈ 0.00331 µg/mL) | 0.8 µM (≈ 0.265 µg/mL) | 0.4 µM (≈ 0.133 µg/mL) | 0.4 µM (≈ 0.133 µg/mL) | 0.4 µM (≈ 0.133 µg/mL) | 3 µM (≈ 0.994 µg/mL)
CC1COc2c(N3CCN(C)CC3)c(F)cc3c(=O)c(C(=O)O)cn1c23 (stereo not drawn) [OFLOXACIN] | > 200 µM | 1.5 µM (≈ 0.542 µg/mL) | 2 µM (≈ 0.723 µg/mL) | 5 µM (≈ 1.81 µg/mL) | 2 µM (≈ 0.723 µg/mL) | 3 µM (≈ 1.08 µg/mL) | 2 µM (≈ 0.723 µg/mL) | 3 µM (≈ 1.08 µg/mL) | 3 µM (≈ 1.08 µg/mL) | 4 µM (≈ 1.45 µg/mL) | 0.4 µM (≈ 0.145 µg/mL) | 0.4 µM (≈ 0.145 µg/mL) | 0.4 µM (≈ 0.145 µg/mL) | 0.4 µM (≈ 0.145 µg/mL) | 1.5 µM (≈ 0.542 µg/mL) | 1.5 µM (≈ 0.542 µg/mL) | 0.8 µM (≈ 0.289 µg/mL) | 0.8 µM (≈ 0.289 µg/mL) | 3 µM (≈ 1.08 µg/mL)
